# Values quoted from earlier work in US8278351B2, “Natural marine source phospholipids comprising polyunsaturated fatty acids and their applications” (priority 2001, dated 2012).
# Tests used:
# [1] = system: Alzheimer's Disease
# [2] = system: depression; conditions: 12 grams daily; placebo 0.6+/−10
# [3] = high-dose inositol
# [4] = system: Obsessive Compulsive Disorder; conditions: week six, compared to placebo period
# [5] = system: panic disorder; conditions: four weeks
# [6] = system: HL60 leukemic cells
# [7] = system: breast, ovarian, and lung cancer cells, mesothelioma cells
# [8] = system: cancer cells; conditions: in vitro
# [9] = system: cognitive decline; conditions: 300 mg. per day for six months, versus placebo
# [10] = system: memory impairment; conditions: 300 mg. daily, three months
# [11] = system: Alzheimer's Disease; conditions: 300 mg. per day for six weeks, 35 patients
# [12] = system: mitochondrial DNA; conditions: treated group versus control; brain and cochlea
# [13] = system: age-related hearing loss
# [14] = system: mitochondrial membrane potentials; conditions: experimental group, peripheral blood
compound,measurement,setting,value
O[C@H]1[C@H](O)[C@@H](O)[C@H](O)[C@@H](O)[C@H]1O [inositol],CAMCOG subscales language and orientation,[1]; only two of the eight subscales,significant improvement
same,total CAMCOG score after inositol,"[1]; six grams inositol daily, four weeks",40.09+/−24.54
same,"total CAMCOG score, baseline","[1]; six grams inositol daily, baseline",31.36+/−20.90
same,improvement in depression as ranked by the Hamilton Depression Rating Scale,[2],33.4+/−6
same,increase of CSF levels of inositol,[3],≤ 70%
same,improvement in OCD,[4],significant improvement
same,frequency and severity of panic attacks and severity of agoraphobia,[5]; versus placebo,declined significantly more after inositol than after placebo
same,panic attacks after treatment,"[5]; decrease from 10 attacks per week, placebo 10 to 6",3 per week
Phosphatidylcholine,dosage tolerated by normal cells relative to leukemic cells,[6]; 24 hours incubation,4 times
same,inhibition of HL60 leukemic cells,[6]; versus normal human marrow cells,inhibit HL60 leukemic cells at a dosage that has no effect on normal human marrow cells
same,difference in sensitivity between normal and tumor cells,[7],≤ 5 fold
same,cytotoxicity to cancer cells,[8],selectively cytotoxic
Phosphatidylserine [PS],memory and learning,[9],significantly improved
same,mental gain,[10],12 years
same,improvement in Alzheimer's patients,[11],significant improvement
Polyunsaturated phosphatidylcholine,mitochondrial DNA damage,[12],less mitochondrial DNA damage
same,"preservation of hearing at all frequencies (3, 6, 9, 12 and 18 kHz)","[13]; 300 mg/kg/day oral diet, four and six months of treatment",statistically significant preservation of hearing
same,overall effect on decline in hearing,"[13]; 300 mg/kg/day, p<0.005 versus control",statistically significant protective effect
same,"mean fluorescence intensity (MFI), beginning of the study",[14]; beginning of the study,3165
same,"mean fluorescence intensity (MFI), end of the study",[14]; end of the study (six months),2990
